Laboratory results published in ChEMBL document CHEMBL1129167, “Examination of the role of the duocarmycin SA methoxy substituents: Identification of the minimum, fully potent DNA binding subunit” (Bioorg Med Chem Lett, 1996).

Tested on: L1210
Assay: In vitro cytotoxicity in L1210 cell lines
Format: functional, cell-based, Mus musculus

SMILES	IC50
COC(=O)c1cc2c([nH]1)C(=O)C=C1N(C(=O)c3cc4ccccc4[nH]3)C[C@H]3C[C@]123 (stereo in doubt; (+)-4) [listing 1 of 2 here]	0.065 nM
COC(=O)c1cc2c([nH]1)C(=O)C=C1N(C(=O)c3cc4cc(OC)ccc4[nH]3)C[C@H]3C[C@]123 (stereo in doubt; (+)-5) [listing 1 of 2 here]	0.01 nM
COC(=O)c1cc2c([nH]1)C(=O)C=C1N(C(=O)c3cc4ccc(OC)cc4[nH]3)C[C@H]3C[C@]123 (stereo in doubt; (+)-6) [listing 1 of 2 here]	0.025 nM
COC(=O)c1cc2c([nH]1)C(=O)C=C1N(C(=O)c3cc4cccc(OC)c4[nH]3)C[C@H]3C[C@]123 (stereo in doubt; (+)-7) [listing 1 of 2 here]	0.06 nM
COC(=O)c1cc2c([nH]1)C(=O)C=C1N(C(=O)c3cc4ccccc4[nH]3)C[C@H]3C[C@]123 (stereo in doubt; (-)-4)	1.7 nM
COC(=O)c1cc2c([nH]1)C(=O)C=C1N(C(=O)c3cc4cc(OC)ccc4[nH]3)C[C@H]3C[C@]123 (stereo in doubt; (-)-5)	0.3 nM
COC(=O)c1cc2c([nH]1)C(=O)C=C1N(C(=O)c3cc4ccc(OC)cc4[nH]3)C[C@H]3C[C@]123 (stereo in doubt; (-)-6)	1.3 nM
COC(=O)c1cc2c([nH]1)C(=O)C=C1N(C(=O)c3cc4cccc(OC)c4[nH]3)C[C@H]3C[C@]123 (stereo in doubt; (-)-7)	1.8 nM
COC(=O)c1cc2c([nH]1)C(=O)C=C1N(C(=O)c3cc4cc(OC)c(OC)c(OC)c4[nH]3)C[C@H]3C[C@]123 [DUOCARMYCIN]	0.1 nM

Tested on: not listed separately
Assay: Compound was evaluated for relative DNA alkylation efficiency.
Format: functional

SMILES	krel
COC(=O)c1cc2c([nH]1)C(=O)C=C1N(C(=O)c3cc4ccccc4[nH]3)C[C@H]3C[C@]123 (stereo in doubt; (+)-4) [listing 2 of 2 here]	0.05
COC(=O)c1cc2c([nH]1)C(=O)C=C1N(C(=O)c3cc4cc(OC)ccc4[nH]3)C[C@H]3C[C@]123 (stereo in doubt; (+)-5) [listing 2 of 2 here]	1
COC(=O)c1cc2c([nH]1)C(=O)C=C1N(C(=O)c3cc4ccc(OC)cc4[nH]3)C[C@H]3C[C@]123 (stereo in doubt; (+)-6) [listing 2 of 2 here]	0.2
COC(=O)c1cc2c([nH]1)C(=O)C=C1N(C(=O)c3cc4cccc(OC)c4[nH]3)C[C@H]3C[C@]123 (stereo in doubt; (+)-7) [listing 2 of 2 here]	0.1
COC(=O)c1cc2c([nH]1)C(=O)C=C1N(C(=O)c3cc4cc(OC)c(OC)c(OC)c4[nH]3)C[C@H]3C[C@]123 [DUOCARMYCIN]	1
